Legend:
Format in all cases: cell-based
BRAF V600E = biological target: T1, BRAF V600E (Homo sapiens, UniProt P15056, V600E); experiment: BRAF HiBiT degradation assay, C-terminal HiBiT-tagged BRAF V600E A375 cells (clone 1F10), Nano-Glo HiBiT Lytic assay; details: for Dmax: A-375
T1 construct: endogenous C-terminal HiBiT fusion tag on BRAF V600E allele; endogenous in cells; host or cells: A375 clone 1F10 (CRISPR-Cas9 knock-in of the HiBiT tag; parental A375 from ATCC)
Summary of the method: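 Steps: seed HiBiT-tagged A375 clone 1F10 cells; incubate 24 h, 37 °C, 5% CO2; add compound (11 half-log points from 1 μM, 0.2% DMSO); lyse with HiBiT detection reagent plus LgBiT for 10 min; read luminescence; fit % protein remaining against concentration.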

BRAF G466V = biological target: T2, BRAF G466V (Homo sapiens, UniProt P15056, G466V); experiment: BRAF HiBiT degradation assay, C-terminal HiBiT-tagged BRAF G466V overexpressed in HCT-116 BRAF−/− cells (clone 8), Nano-Glo HiBiT Lytic assay
T2 construct: Horizon Discovery (HCT-116 BRAF−/− cells); host or cells: HCT-116 BRAF−/− cells, clone 8, lentiviral transduction
Summary of the method: (§1)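 We quantified degradation of the C-terminally HiBiT-tagged, overexpressed mutant by lytic luminescence, normalizing to DMSO-treated cells with wild-type HCT-116 background subtracted. Dose series ran from 1 μM to 0.01 nM at 0.2% DMSO. Observed Dmax is % degraded at maximal effect.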

BRAF G469A = biological target: T3, BRAF G469A (Homo sapiens, UniProt P15056, G469A); experiment: BRAF HiBiT degradation assay, C-terminal HiBiT-tagged BRAF G469A overexpressed in HCT-116 BRAF−/− cells (clone 34), Nano-Glo HiBiT Lytic assay
T3 construct: Horizon Discovery (HCT-116 BRAF−/− cells); host or cells: HCT-116 BRAF−/− cells, clone 34, lentiviral transduction
Summary of the method: as §1

BRAF D594G = biological target: T4, BRAF D594G (Homo sapiens, UniProt P15056, D594G); experiment: BRAF HiBiT degradation assay, C-terminal HiBiT-tagged BRAF D594G overexpressed in HCT-116 BRAF−/− cells (clone 63), Nano-Glo HiBiT Lytic assay
T4 construct: Horizon Discovery (HCT-116 BRAF−/− cells); host or cells: HCT-116 BRAF−/− cells, clone 63, lentiviral transduction
Summary of the method: as §1

[1] = A375 (BRAF V600E, Class 1), DC50 at 50% degradation
[2] = A375 (BRAF V600E, Class 1), observed Dmax, % protein degraded relative to DMSO control
[3] = BRAF G466V (Class 3), HCT-116 BRAF−/− cells, DC50 at 50% degradation
[4] = BRAF G466V (Class 3), HCT-116 BRAF−/− cells, observed Dmax relative to DMSO control
[5] = BRAF G469A (Class 2), HCT-116 BRAF−/− cells, DC50 at 50% degradation
[6] = BRAF G469A (Class 2), HCT-116 BRAF−/− cells, observed Dmax relative to DMSO control
[7] = BRAF D594G (Class 3), HCT-116 BRAF−/− cells, DC50 at 50% degradation
[8] = BRAF D594G (Class 3), HCT-116 BRAF−/− cells, observed Dmax relative to DMSO control
[9] = A375 (BRAF V600E), DC50 at 50%: fitted conc. at Y=50
[10] = A375 (BRAF V600E), percentage protein degraded at maximal compound effect relative to DMSO
[11] = BRAF G466V, DC50 at 50%: fitted conc. at Y=50
[12] = HCT-116, BRAF G466V, percentage protein degraded at maximal compound effect relative to DMSO
[13] = Class 2, BRAF G469A, DC50 at 50%: fitted conc. at Y=50
[14] = HCT-116, Class 2, BRAF G469A, percentage protein degraded at maximal compound effect relative to DMSO
[15] = BRAF D594G, DC50 at 50%: fitted conc. at Y=50
[16] = HCT-116, BRAF D594G, percentage protein degraded at maximal compound effect relative to DMSO

T2 sequence (P15056 whole entry G466V): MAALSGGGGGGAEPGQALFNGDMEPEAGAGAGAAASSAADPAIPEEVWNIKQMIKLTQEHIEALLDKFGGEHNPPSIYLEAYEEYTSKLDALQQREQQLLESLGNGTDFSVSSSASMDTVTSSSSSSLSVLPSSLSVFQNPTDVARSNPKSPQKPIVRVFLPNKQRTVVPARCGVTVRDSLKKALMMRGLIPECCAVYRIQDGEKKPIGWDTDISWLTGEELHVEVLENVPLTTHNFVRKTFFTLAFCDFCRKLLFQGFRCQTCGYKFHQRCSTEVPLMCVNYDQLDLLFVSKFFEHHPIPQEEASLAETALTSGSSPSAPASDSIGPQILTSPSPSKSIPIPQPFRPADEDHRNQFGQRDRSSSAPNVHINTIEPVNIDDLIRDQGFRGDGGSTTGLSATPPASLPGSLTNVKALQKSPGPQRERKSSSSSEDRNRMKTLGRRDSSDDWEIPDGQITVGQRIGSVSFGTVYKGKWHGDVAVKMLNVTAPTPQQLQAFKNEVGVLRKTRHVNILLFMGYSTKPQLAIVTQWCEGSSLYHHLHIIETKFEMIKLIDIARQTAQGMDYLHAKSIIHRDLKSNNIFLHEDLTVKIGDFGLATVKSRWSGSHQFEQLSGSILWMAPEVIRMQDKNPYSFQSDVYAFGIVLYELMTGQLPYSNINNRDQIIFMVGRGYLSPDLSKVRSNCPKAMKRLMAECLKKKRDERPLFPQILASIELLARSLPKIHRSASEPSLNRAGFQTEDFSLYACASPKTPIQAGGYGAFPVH
T4 sequence (P15056 whole entry D594G): as the sequence (P15056 whole entry G466V) above, with V466G, D594G counted along it
T3 sequence (P15056 whole entry G469A): as the sequence (P15056 whole entry G466V) above, with V466G, G469A counted along it
T1 sequence (P15056 whole entry V600E, the tested form may be a part): as the sequence (P15056 whole entry G466V) above, with V466G, V600E counted along it

| DC50 (BRAF V600E; [1]) [nM] | Dmax (BRAF V600E; [2]) [%] | DC50 (BRAF G466V; [3]) [nM] | Dmax (BRAF G466V; [4]) [%] | DC50 (BRAF G469A; [5]) [nM] | Dmax (BRAF G469A; [6]) [%] | DC50 (BRAF D594G; [7]) [nM] | Dmax (BRAF D594G; [8]) [%] | DC50 (BRAF V600E; [9]) [nM] | Dmax (BRAF V600E; [10]) [%] | DC50 (BRAF G466V; [11]) [nM] | Dmax (BRAF G466V; [12]) [%] | DC50 (BRAF G469A; [13]) [nM] | Dmax (BRAF G469A; [14]) [%] | DC50 (BRAF D594G; [15]) [nM] | Dmax (BRAF D594G; [16]) [%] | Structure (SMILES) |
| --- | --- | --- | --- | --- | --- | --- | --- | --- | --- | --- | --- | --- | --- | --- | --- | --- |
| – | – | – | – | – | – | – | – | 10 to 50 | > 70 | < 10 | 30 to 70 | < 10 | 30 to 70 | 10 to 50 | 30 to 70 | CCN(C)S(=O)(=O)Nc1cccc(-c2nc(C)sc2-c2ccnc(Nc3ccc(N4CCN(CC5(F)CCN(c6ccc(C7CCC(=O)NC7=O)cc6)CC5)CC4)cn3)n2)c1F (racemic) [Compound 33, Rac-(3S)-3-{4-[4-({4-[6-({4-[4-(3-{[ethyl(methyl)sulfamoyl]amino}-2-fluorophenyl)-2-methyl-1,3-thiazol-5-yl]pyrimidin-2-yl}amino)pyridin-3-yl]piperazin-1-yl}methyl)-4-fluoropiperidin-1-yl]phenyl}piperidine-2,6-dione] |
| – | – | – | – | – | – | – | – | 10 to 50 | > 70 | 10 to 50 | 30 to 70 | > 500 | 30 to 70 | 10 to 50 | 30 to 70 | CCCS(=O)(=O)Nc1cccc(-c2cn(-c3ccc(N4CCN(CC5CCN(c6ccc(C7CCC(=O)NC7=O)cc6F)CC5)CC4)cc3)nc2-c2ccncc2)c1F (racemic) [Compound 18, Rac-N-{3-[1-(4-{4-[(1-{4-[(3R)-2,6-dioxopiperidin-3-yl]-2-fluorophenyl}piperidin-4-yl)methyl]piperazin-1-yl}phenyl)-3-(pyridin-4-yl)-1H-pyrazol-4-yl]-2-fluorophenyl}propane-1-sulfonamide] |
| – | – | – | – | – | – | – | – | < 10 | > 70 | > 500 | 30 to 70 | > 500 | < 30 | > 500 | 30 to 70 | CCCS(=O)(=O)Nc1cccc(-c2nc(C3CCN(CC4CCN(C(=O)[C@H]5CC[C@H](Oc6ccc(C7CCC(=O)NC7=O)cc6)CC5)CC4)CC3)sc2-c2ccnc(N)n2)c1F (mixture of isomers) [Compound 224, N-{3-[5-(2-aminopyrimidin-4-yl)-2-[1-({1-[(1r,4r)-4-{4-[(3RS)-2,6-dioxopiperidin-3-yl]phenoxy}cyclohexanecarbonyl]piperidin-4-yl}methyl)piperidin-4-yl]-1,3-thiazol-4-yl]-2-fluorophenyl}propane-1-sulfonamide] |
| < 10 | > 70 | < 10 | > 70 | 10 to 50 | > 70 | < 10 | > 70 | – | – | – | – | – | – | – | – | C[C@@H]1CN(c2ccc(-n3cc(-c4cc(F)cc(NS(=O)(=O)N5CCCC5)c4F)c(-c4ccncc4)n3)c(F)c2)CCN1CC1CCN(c2ccc(C3CCC(=O)NC3=O)cn2)CC1 (mixture of isomers) [Compound 289, N-(3-(1-(4-((R)-4-((1-(5-((RS)-2,6-dioxopiperidin-3-yl)pyridin-2-yl)piperidin-4-yl)methyl)-3-methylpiperazin-1-yl)-2-fluorophenyl)-3-(pyridin-4-yl)-1H-pyrazol-4-yl)-2,5-difluorophenyl)pyrrolidine-1-sulfonamide] |
| – | – | – | – | – | – | – | – | 10 to 50 | > 70 | > 500 | 30 to 70 | > 500 | < 30 | > 500 | < 30 | CCCS(=O)(=O)Nc1cccc(-c2nc(C(C)(C)C)sc2-c2ccnc(NC3CC4(CCN(C(=O)CN5CCC(c6ccc(NC7CCC(=O)NC7=O)cc6)CC5)CC4)C3)n2)c1F (racemic) [Compound 131, Rac-N-[3-(2-tert-butyl-5-{2-[(7-{2-[4-(4-{[(3R)-2,6-dioxopiperidin-3-yl]amino}phenyl)piperidin-1-yl]acetyl}-7-azaspiro[3.5]nonan-2-yl)amino]pyrimidin-4-yl}-1,3-thiazol-4-yl)-2-fluorophenyl]propane-1-sulfonamide] |
| < 10 | > 70 | < 10 | > 70 | 10 to 50 | 30 to 70 | < 10 | 30 to 70 | – | – | – | – | – | – | – | – | O=C1CC[C@H](c2ccc(N3CCC(CN4CCN(c5ccc(-n6cc(-c7cc(Cl)cc(NS(=O)(=O)N8CCCC8)c7F)c(-c7ccncc7)n6)cn5)CC4)CC3)cc2)C(=O)N1 [Compound 351, N-{5-chloro-3-[1-(6-{4-[(1-{4-[(3R)-2,6-dioxopiperidin-3-yl]phenyl}piperidin-4-yl)methyl]piperazin-1-yl}pyridin-3-yl)-3-(pyridin-4-yl)-1H-pyrazol-4-yl]-2-fluorophenyl}pyrrolidine-1-sulfonamide] |

The next lines start with the compound.

| Structure (SMILES) | DC50 (BRAF V600E; [1]) [nM] | Dmax (BRAF V600E; [2]) [%] | DC50 (BRAF G466V; [3]) [nM] | Dmax (BRAF G466V; [4]) [%] | DC50 (BRAF G469A; [5]) [nM] | Dmax (BRAF G469A; [6]) [%] | DC50 (BRAF D594G; [7]) [nM] | Dmax (BRAF D594G; [8]) [%] | DC50 (BRAF V600E; [9]) [nM] | Dmax (BRAF V600E; [10]) [%] | DC50 (BRAF G466V; [11]) [nM] | Dmax (BRAF G466V; [12]) [%] | DC50 (BRAF G469A; [13]) [nM] | Dmax (BRAF G469A; [14]) [%] | DC50 (BRAF D594G; [15]) [nM] | Dmax (BRAF D594G; [16]) [%] |
| --- | --- | --- | --- | --- | --- | --- | --- | --- | --- | --- | --- | --- | --- | --- | --- | --- |
| O=C1CCC(c2ccc(N3CCC(CN4CCN(c5ccc(-n6cc(-c7cc(C(F)F)cc(NS(=O)(=O)N8CCCC8)c7F)c(-c7ccncc7)n6)c(F)c5)CC4)CC3)nc2)C(=O)N1 (racemic) [Compound 357, Rac-N-[5-(difluoromethyl)-3-[1-(4-{4-[(1-{5-[(3R)-2,6-dioxopiperidin-3-yl]pyridin-2-yl}piperidin-4-yl)methyl]piperazin-1-yl}-2-fluorophenyl)-3-(pyridin-4-yl)-1H-pyrazol-4-yl]-2-fluorophenyl]pyrrolidine-1-sulfonamide] | < 10 | > 70 | < 10 | > 70 | 10 to 50 | > 70 | < 10 | 30 to 70 | – | – | – | – | – | – | – | – |
| CCN(C)S(=O)(=O)Nc1cccc(-c2nc(C(C)(C)C)sc2-c2ccnc(Nc3ccc(N4CCN(CC5CCN(c6ccc([C@H]7CCC(=O)NC7=O)cn6)CC5)CC4)cn3)n2)c1F [Compound 29, (3R)-3-{6-[4-({4-[6-({4-[2-tert-butyl-4-(3-{[ethyl(methyl)sulfamoyl]amino}-2-fluorophenyl)-1,3-thiazol-5-yl]pyrimidin-2-yl}amino)pyridin-3-yl]piperazin-1-yl}methyl)piperidin-1-yl]pyridin-3-yl}piperidine-2,6-dione] | – | – | – | – | – | – | – | – | 10 to 50 | > 70 | < 10 | > 70 | 10 to 50 | 30 to 70 | < 10 | 30 to 70 |
| CCCS(=O)(=O)Nc1cccc(-c2nc(C(C)(C)C)sc2-c2ccnc(Nc3ccc(N4CCN(C(=O)CN5CCc6cc(C7CCC(=O)NC7=O)ccc6C5)CC4)c(F)c3)n2)c1F (racemic) [Compound 51, Rac-N-(3-{2-tert-butyl-5-[2-({4-[4-(2-{6-[(3R)-2,6-dioxopiperidin-3-yl]-1,2,3,4-tetrahydroisoquinolin-2-yl}acetyl)piperazin-1-yl]-3-fluorophenyl}amino)pyrimidin-4-yl]-1,3-thiazol-4-yl}-2-fluorophenyl)propane-1-sulfonamide] | – | – | – | – | – | – | – | – | < 10 | > 70 | 50 to 500 | 30 to 70 | > 500 | 30 to 70 | 50 to 500 | 30 to 70 |
| CCCS(=O)(=O)Nc1cccc(-c2nc(C3CCN(C(=O)C4CCN(C(=O)C5CCN(c6ccc(C7CCC(=O)NC7=O)cn6)CC5)CC4)CC3)sc2-c2ccnc(N)n2)c1F (racemic) [Compound 254, Rac-N-{3-[5-(2-aminopyrimidin-4-yl)-2-{1-[1-(1-{5-[(3R)-2,6-dioxopiperidin-3-yl]pyridin-2-yl}piperidine-4-carbonyl)piperidine-4-carbonyl]piperidin-4-yl}-1,3-thiazol-4-yl]-2-fluorophenyl}propane-1-sulfonamide] | < 10 | > 70 | < 10 | > 70 | 10 to 50 | 30 to 70 | < 10 | 30 to 70 | – | – | – | – | – | – | – | – |

— patent publication US20260317324A1, “BIFUNCTIONAL COMPOUNDS FOR DEGRADING BRAF VIA UBIQUITIN PROTEOSOME PATHWAY” (Nurix Therapeutics, Inc., priority 2023, published 2026)
